This is an account of results in patent publication US20220249476A1, “MutL LOSS PREDICTS SENSITIVITY TO CDK4/6 INHIBITORS IN CANCER” (Baylor College of Medicine, priority 2018, published 2022).

Assay [1] concerns ER+ PDX lines (BCaPE). As to conditions: four CENMP- PDX lines compared with three CENMP+ lines; p=0.02; cited from earlier work.
In assay [2] the test system is ZR-75 cells. Briefly: Growth assay (Alamar blue) in ZR-75 cells with knockdown of DDR genes. The assay is classed as cell-based, human. The settings on record: siCETN2, siNEIL2 and siERCC1 ZR-75 cells (transient siRNA) vs siScr; media containing full serum. On the procedure:
ZR75.1 and MCF7 parental cells were from ATCC, 2015 and 2017 respectively, and tested for mycoplasma contamination upon arrival using the Lonza Mycoalert Plus Kit (CAT# LT07-710) as per the manufacturer's instructions, and annually since. Both lines were maintained in RPMI 1640 1X w/ L-glutamine and 1% Penicillin/Streptomycin (Sigma-Aldrich, CAT#P4333—100 mL). Cell lines used for experiments were <20 passages. Transient transfections with esiRNA (Sigma-Aldrich) towards human NEIL2 (CAT#EHU158461), CETN2 (CAT#EHU137031), ERCC1 (CAT#EHU156971), RAD23B (CAT#EHU145881) and POLM (CAT#SASI_Hs02_003344553), or scrambled control used at 50 nmoles/L each were delivered using Polypluys jetPRIME® transfection reagent (CAT#114-07) as per the manufacturer's instructions. Cells were plated for experiments 48 hrs after transfection. Stable selection with puromycin after infection with lentivirus harboring RNAi oligos (ABM) against human NEIL2 (CAT#i014980a), CETN2 (CAT#i004479a), and ERCC1 (CAT#i007023a) or scrambled control (CAT#i000238c) was conducted using manufacturer's protocol. Growth assays were repeated independently in triplicate as previously reported (50) using Alamar blue to detect cell viability. Final readings were between 4-6 days after initial drug treatment and fold change plotted for analysis. […]

Assay [3] has as its system MCF7 cells. Briefly: FACS analysis for PCNA in MCF7 cells after fulvestrant treatment. It counts as cell-based, human. As to conditions: MCF7 cells with stable knockdown of CETN2, NEIL2, ERCC1 and MLH1 relative to control cells; 100 nM fulvestrant. The protocol:
(§1) FIGS. 17A-17E. Dysregulation of CETN2, NEIL2 and ERCC1 expression in ER+ breast cancer cells alters regulation of G1/S transition of the cell cycle. FIG. 17A & FIG. 17D) Histograms representing percentage of siScr, siCETN2, siNEIL2, siERCC1 and siMLH1 MCF7 cells that are Ki67 (FIG. 17A) and PCNA (FIG. 17D) positive after 48 hours of treatment with 100 nM of fulvestrant. Columns represent the mean and error bars the standard deviation. Student's t-test determined p-values. FIG. 17B-FIG. 17C) Boxplots indicating levels of CDK4 mRNA and PCNA protein level in CETN2, ERCC1, NEIL2, PRKDC proficient (CEN+PRKDCwt) and deficient (CEN-PRKDCmut) ER+ breast tumors based on values from microarray and RPPA data from TCGA. Wilcoxon Rank Sum test determined p-values. FIG. 17E) Histograms depicting percent growth inhibition in fulvestrant and abemaciclib (CDK4/6i)-treated MCF7 cells stably selected for RNAi-mediated knockdown of control, CETN2, ERCC1 or NEIL2, relative to vehicle treated cells. […] Student's t-test determined p-values.
(§2) RNA from cell lines was extracted using the Qiagen RNeasy Mini Kit (CAT#74106) and converted to cDNA using Bio-Rad Reverse Transcriptase iScript (CAT#TX1708891BAY), both following manufacturers' instructions. cDNA was quantified by qPCR using Bio-Rad SsoAdvanced Universal SYBR Green supermix (CAT#17525272) at the manufacturers specifications. […]

In assay [4] the test system is MCF7 cells. Briefly: Ki67 immunofluorescence in MCF7 cells before and after fulvestrant treatment. It counts as cell-based, human. The settings on record: siCETN2, siNEIL2, siERCC1 MCF7 cells vs siScr control; 100 nM fulvestrant, 48 hours. The protocol: as §1, §2
In assay [5] the test system is MCF7 cells. Briefly: Growth assay (Alamar blue) in MCF7 cells with knockdown of DDR genes. The assay is classed as cell-based, human. As to conditions: for sensitivity (growth inhibition relative to vehicle treated cells): 100 nM fulvestrant, 1 μM Palbociclib. The protocol:
ZR75.1 and MCF7 parental cells were from ATCC, 2015 and 2017 respectively, and tested for mycoplasma contamination upon arrival using the Lonza Mycoalert Plus Kit (CAT# LT07-710) as per the manufacturer's instructions, and annually since. Both lines were maintained in RPMI 1640 1X w/ L-glutamine and 1% Penicillin/Streptomycin (Sigma-Aldrich, CAT#P4333—100 mL). Cell lines used for experiments were <20 passages. Transient transfections with esiRNA (Sigma-Aldrich) towards human NEIL2 (CAT#EHU158461), CETN2 (CAT#EHU137031), ERCC1 (CAT#EHU156971), RAD23B (CAT#EHU145881) and POLM (CAT#SASI_Hs02_003344553), or scrambled control used at 50 nmoles/L each were delivered using Polypluys jetPRIME® transfection reagent (CAT#114-07) as per the manufacturer's instructions. Cells were plated for experiments 48 hrs after transfection. Stable selection with puromycin after infection with lentivirus harboring RNAi oligos (ABM) against human NEIL2 (CAT#i014980a), CETN2 (CAT#i004479a), and ERCC1 (CAT#i007023a) or scrambled control (CAT#i000238c) was conducted using manufacturer's protocol. Growth assays were repeated independently in triplicate as previously reported (50) using Alamar blue to detect cell viability. Final readings were between 4-6 days after initial drug treatment and fold change plotted for analysis. Fulvestrant(Fisher Scientific CAT#506242), 4-OHT(Sigma-Aldrich CAT#H7904), Palbociclib (ThermoFisher CAT#508548) and Abemaciclib (ThermoFisher CAT#NC0577560), dissolved in DMSO, and β-estradiol (Sigma-Aldrich CAT#E2758-1G), dissolved in water, at 10 mmoles/L were stored long term at −80 C with working stocks at −20 C. Cells were treated 24 hours after plating with fresh drug added every 48 hrs until the end of the experiment. Estradiol addition experiments were conducted in phenol red-free DMEM with 10% charcoal stripped serum.

On to `CC(C)(C#N)c1cc(Cn2cncn2)cc(C(C)(C)C#N)c1` [anastrozole], for which the “tumor viability after treatment (AUC)” value in assay [1] is on record as “significantly higher tumor viability”.

With `C[C@]12CC[C@@H]3c4ccc(O)cc4C[C@@H](CCCCCCCCC[S+]([O-])CCCC(F)(F)C(F)(F)F)[C@H]3[C@@H]1CC[C@@H]2O` (stereo partly drawn) [fulvestrant, Fulvestrant], the “growth inhibition in response to treatment” value is listed as “significant lack of growth inhibition” in assay [2]; “significant lack of growth inhibition” in assay [5] (siCETN2, siNEIL2 and siERCC1 MCF7 cells (transient siRNA) vs siScr, media containing full serum). Besides, in assay [3], the “PCNA positivity after treatment” value is reported as “Increased PCNA positivity”. The “Ki67 inhibition in response to treatment” value in assay [4] is reported as “profound lack of Ki67 inhibition”. The “growth phenotype under treatment” value in assay [5] (MCF7 cells stably selected with lentiviral RNAi against CETN2, NEIL2, ERCC1) is listed as “Fulvestrant-independent”. In assay [5] (MCF7 cells with siRNA knockdown of negative control genes RAD23B and POLM), the “growth response to treatment” value is recorded as “did not alter growth response”. Also, the “sensitivity (growth inhibition relative to vehicle treated cells)” value in assay [5] (MCF7 cells with stable knockdown of CETN2, NEIL2 or ERCC1) is “resistance”; in assay [5] (control MCF7 cells (scrambled RNAi)), “comparable sensitivity”.
